For one experiment, the system named is postmenopausal bone loss. As to conditions: cited from earlier work.
Experiment [1] deals with vascular calcification (aortae and carotid arteries). As to the kind of experiment: Experiment 4: vascular calcification (Von Kossa staining) in rats treated with warfarin, vitamin K-1 and increasing doses of MK-4 (KW model). In kind it is in vivo, male Lewis rats. From the text: In the present invention the “Vitamin K1 plus warfarin” model was used to test effects of isoprenyl derivatives on vascular calcification. This model is also referred to as the “KW model for calcification” or “KW model”. Because of the parallels between vascular calcification and calcium metabolism in bone, the model is regarded to be valid for describing potential effects on bone. Whereas in this model the bone deformations will not become visible before 9 months of treatment, calcification of the large arteries is usually apparent within 4 weeks of treatment. This model therefore provides an excellent in vivo model to test the compounds according to the invention for their tissue distribution, toxicity and effectivity. […] It was shown that calcification was not inhibited by vitamin K-1 in doses going up from 40 to 600 mg/kg of body weight per day. The highest dose was 15,000 times the amount required for normal blood coagulation in untreated animals, and 15 times the amount required for normal blood coagulation in warfarin-treated animals. At these high intakes all tissues contain excessive amounts of vitamin K-1, which apparently are incapable of supporting the synthesis of inhibitors of calcium precipitation such as the Gla-protein MGP. […]

Experiment [2] relates to prothrombin. As to the kind of experiment: Experiment 1: dietary requirement of vitamin K-1 in untreated rats, prothrombin concentration (one-stage coagulation assay). It is filed as in vivo, male Lewis rats. As to conditions: for Mean prothrombin concentration: four weeks. The protocol: In experiment 1 the dietary requirement of vitamin K-1 was measured in untreated male Lewis rats, 6 weeks of age, on the basis of blood coagulation tests after a treatment period of 4 weeks. At an intake of 40 microgram vitamin K-1 per kg body weight per day, the synthesis of coagulation factors had reached its (maximal) plateau level.
Male rats of the Lewis strain were used throughout our experiments, six animals per group. Thirty six animals entered the experiment at the age of 6 weeks and received a vitamin K deficient diet (Hope Farms, Woerden, The Netherlands) for one week to deplete them from endogenous vitamin K. During the experiment they were housed in coprophagy-preventing cages. After this period citrated blood was taken from the tail vein, and the prothrombin concentrations (one-stage coagulation assay) were checked to be below the normal reference value. At that time they received vitamin K-deficient food to which controlled amounts of vitamin K-1 were added in the following doses: 0.1, 0.2, 0.4, 0.6, 0.8, and 1.0 mg/kg of food. The daily food intake was recorded, and the body weight of the animals was measured regularly. After four weeks of treatment at the indicated doses again blood was taken and prothrombin concentrations were measured. Mean prothrombin concentrations in the groups were: 23%, 48%, 82%, 98%, 102%, and 99% of pooled normal rat reference plasma. […] This amount corresponds with an intake of 40 micrograms of vitamin K-1 per kg body weight per day.

Experiment [3] deals with prothrombin. As to the kind of experiment: Experiment 2: dietary requirement of vitamin K-1 in warfarin-treated rats, plasma prothrombin level. In kind it is in vivo, male Lewis rats. The procedure:
In experiment 2 the dietary requirement of vitamin K-1 in warfarin-treated (300 mg Vitamin K-1 per kg body weight per day) male Lewis rats, 6 weeks of age, was measured on the basis of blood coagulation tests after a treatment period of 4 weeks. At a level of 40 mg vitamin K-1 per kg body weight per day a normal prothrombin synthesis was maintained.
Thirty six male Lewis rats (6 weeks of age) were treated with an excess of warfarin (300 mg vitamin K-1 per kg body weight per day) to block all dithiol reductase present in the tissues. They were subdivided into groups of 6 animals each and received vitamin K-1 in the following doses: 20, 40, 70, 100, 300, and 600 mg/kg body weight per day. […] It was concluded that […] of vitamin K-1 per kg body weight per day effectively protects the animals against warfarin-induced bleeding.

Experiment [4] has as its system vascular calcification (aortic arch and carotid arteries). Put plainly: Experiment 3: vascular calcification (Von Kossa staining) in rats treated with warfarin and increasing doses of vitamin K-1. It is filed as in vivo, male Lewis rats. From the text: In the present invention the “Vitamin K1 plus warfarin” model was used to test effects of isoprenyl derivatives on vascular calcification. This model is also referred to as the “KW model for calcification” or “KW model”. Because of the parallels between vascular calcification and calcium metabolism in bone, the model is regarded to be valid for describing potential effects on bone.
The same animals described in experiment 2 were killed, and the aortic arch and carotid arteries were removed and stained for calcium deposits using the Von Kossa staining and histochemical inspection.

Molecules are shown by their SMILES. Entries after “also recorded” stand apart in the source; their conditions may differ.

Here are results for 2 compounds from US20050176778A1, “Isoprenyl derivatives and their use in the title treatment and prevention of osteoporosis and cardiovascular calcification” (Vitak BV, priority 2001, published 2005).

`CC(C)=CCC/C(C)=C/CC/C(C)=C/CC/C(C)=C/CC1=C(C)C(=O)c2ccccc2C1=O` [MK-4, 2-methyl 3-geranylgeranyl naphthoquinone]: the Action on bone result with postmenopausal bone loss (high doses of MK-4 (45 mg/day)) is “comparable with that of bisphosphonates”. For the same compound, the “Effect on postmenopausal bone loss” value in the experiment with postmenopausal bone loss (high doses) is “almost completely inhibit postmenopausal bone loss”. For the same compound, the “Inhibition of vascular calcification” value in experiment [1] (KW model, addition of 10 mg/kg body weight per day of MK-4) is recorded as “effectively inhibited all vascular calcification”. In addition, the “Vascular calcification (Von Kossa staining)” value in experiment [1] (warfarin 300 mg/kg/d plus vitamin K-1 70 mg/kg/d plus MK-4 10, 20 and 50 mg per kg body weight per day, 6 weeks) is “no calcification”.
With `CC1=C(C/C=C(\C)CCC[C@H](C)CCC[C@H](C)CCCC(C)C)C(=O)c2ccccc2C1=O` [vitamin K-1], in the experiment with prothrombin [2] (untreated rats, content in food), the “Diet content sufficient to maintain normal prothrombin synthesis” value was 0.6 mg of vitamin K-1 per kg. Also, the Mean prothrombin concentration in the experiment with prothrombin [2] (vitamin K-1 0.1 mg/kg of food, after vitamin K deficient diet) is on record as 23 % of pooled normal rat reference plasma; in the experiment on prothrombin [2] (vitamin K-1 0.2 mg/kg of food), 48 % of pooled normal rat reference plasma; in the experiment on prothrombin [2] (vitamin K-1 0.4 mg/kg of food) it was 82 % of pooled normal rat reference plasma; in the experiment with prothrombin [2] (vitamin K-1 0.6 mg/kg of food), 98 % of pooled normal rat reference plasma; in the experiment with prothrombin [2] (vitamin K-1 0.8 mg/kg of food), 102 % of pooled normal rat reference plasma; in the experiment with prothrombin [2] (vitamin K-1 1.0 mg/kg of food), 99 % of pooled normal rat reference plasma. For the same compound, the “Dose that effectively protects the animals against warfarin-induced bleeding” value in the experiment on prothrombin [3] was 70 mg of vitamin K-1 per kg body weight per day. In addition, the “Level at which a normal prothrombin synthesis was maintained” value in the experiment with prothrombin [3] (4 weeks) is reported as 40 mg vitamin K-1 per kg body weight per day. In addition, the Circulating prothrombin concentration in the experiment on prothrombin [3] (20 and 40 mg of vitamin K-1 per day) was 60 % of normal; in the experiment with prothrombin [3] (all higher intakes (70, 100, 300, 600 mg/kg body weight per day)), “comparable to normal reference values”. Further, in experiment [4] (KW model, vitamin K-1 doses going up from 40 to 600 mg/kg of body weight per day), the Inhibition of calcification result was “not inhibited”. Moreover, the “Vascular calcification (Von Kossa staining)” value in experiment [4] (warfarin 300 mg/kg/d plus vitamin K-1 20, 40, 70, 100, 300 and 600 mg/kg body weight per day, 4 weeks) was “substantial calcification; also recorded: Calcification of the media (notably the elastic lamelae) was found in all animals”.
